Measurements published in article PMC4592245 (PLoS ONE, 2015).

Assays:
SRC–3 [1] = target: T1, SRC–3 (Homo sapiens, UniProt Q9Y6Q9); design: Cell lysate was prepared by adding RIPA buffer; endogenous in cells; host or cells: HCC1143, SUM149PT, SUM159PT, MDA-MB-231, MDA-MB-231-LM3-3; method as in PMID 22053001; details: cited from earlier work
heart muscle = assay: H&E staining of heart tissues; details: 24 h after drug administration
SUM159PT = assay: Cell cytotoxicity assay (MTT), SUM159PT; format: cell-based; details: 72 h
Description: (§1) TNBC cells (5000 to 7000 cells per well) were seeded in 96-well plates in medium supplemented with 10% FBS. […] Cell viabilities relative to untreated control cells were plotted using Graphpad Prism.

cancer cells = details: selective toxicity towards cancer cells; cited from earlier work
MDA-MB–231 = assay: Cell cytotoxicity assay (MTT), MDA-MB-231; format: cell-based; details: MDA-MB-231, 72 h
Description: as §1

LM3-3 cells [2] = assay: Single cell motility assay; format: cell-based
Description: Microtiter 96-well plates pre-coated with collagen V were covered with beads provided by a Cell Motility HCS kit (Thermo Scientific Co. Cat# K0800011). 500 LM3-3 cells were seeded in each bead-coated well. […] The cell track areas (pixels) were counted using Image J. To attain statistical significance, more than 50 cell tracks in each sample were counted.

[3] = Pharmacokinetic study of 3-phospho-bufalin
Description: Five quality control (QC) samples at 10 ng/mL, 20 ng/mL, 500 ng/mL, 4000 ng/mL and 8000 ng/mL of plasma were prepared independently of those used for the calibration curves. QC samples were prepared on the day of analysis in the same way as the calibration standards.
Standards, QC samples, and unknown samples were injected into LC-MS/MS for quantitative analysis. The pharmacokinetic parameters of p-Buf were analyzed using WinNonLin. The PK trace was fitted into a non-compartmental extravascular model.

HCC1143 = assay: Cell cytotoxicity assay (MTT), HCC1143; format: cell-based; details: Homo sapiens, HCC1143, 72 h
Description: as §1

[4] = system: mouse primary hepatocytes; assay: Viability of primary hepatocytes; format: cell-based; details: concentrations of up to 10 μM
Description: The HCC1143 cell line was grown in RPMI–1640 medium, SUM149PT and SUM159PT cell lines were grown in F–12 medium, and MDA-MB–231 cells were grown in DMEM. All culture media were supplemented with 10% fetal bovine serum. All cell lines were grown in a humidified incubator containing 5% CO2 at 37°C. Primary hepatocytes were isolated from an adult male mouse (C57BL) by collagenase perfusion (0.8 mg/mL; Sigma–Aldrich, C5138) through the portal vein as described previously, and maintained in M199 medium with 10% FBS. The viability of freshly isolated hepatocytes was verified using Trypan blue staining.
as §1

LM3-3 cells [5] = assay: Gefitinib and bufalin co-treatment, cell viability; format: cell-based
MDA-MB-231-LM3-3 = assay: Cell cytotoxicity assay (MTT), MDA-MB-231-LM3-3; format: cell-based; details: MDA-MB-231-LM3-3, 72 h
Description: as §1

SUM149PT = assay: Cell cytotoxicity assay (MTT), SUM149PT; format: cell-based; details: 72 h
Description: as §1

Ki–67 = assay: Ki-67 immunohistochemistry of tumor tissue; format: in vivo, nude mice; details: 0.75 mg/kg 3 times per week
Description: The formalin-fixed, paraffin-embedded tissue was dried at 58°C for 1 hour in an oven, and de-paraffinized by soaking slides in xylene, ethanol, and finally distilled water. Antigen was retrieved by steaming slides in a target retrieval solution, 10 mM citrate buffer (pH 6.0), for 30 minutes. Endogenous peroxidases were blocked with a 3% of hydrogen peroxide solution in PBS buffer. The leftover hydrogen peroxide was removed with PBS rinse. […] To stain the SRC–3 antigen, anti-SRC–3 antibody (Mouse source, BD Biosciences Inc. Cat# 611104) was pre-diluted 1:400 in a normal serum blocking solution. To stain the Ki–67 antigen, anti-Ki–67 (Rabbit source, Cell Signaling Technology Inc. Cat#9027) was used in 1:10000 dilution. During the staining procedure, the sections were incubated with HRP-polymer conjugated secondary antibodies (Vector Laboratories, Cat#7401 for rabbit antibody, Cat#MP–2400 for mouse antibody). To visualize the immunostaining, the sections were incubated with a fresh DAB solution (Dako Inc. Cat# K3468) and monitored under a microscope. Once ideal signals were observed, the reaction was stopped by rinsing the slides with water. Nuclear counterstain was also performed by immersing slides in Mayer’s Hematoxylin and a bluing reagent.

ICR mice = assay: Electrocardiogram (EKG) measurements; format: in vivo, mouse;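 note: Non-invasive EKG recorded at several successive time points, with each individual signal then analysed by physiologic waveform analysis software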
Description: Non-invasive EKG recordings were made using the ECGenie system (Mouse Specifics) at several subsequent time points. […] Data acquisition was performed using the program LabChart 6 (AD Instruments). Individual EKG signals were then evaluated using e-MOUSE physiologic waveform analysis software (Mouse Specifics) as previously described [31].

[6] = system: MDA-MB-231-LM3-3 orthotopic breast tumors; assay: Therapeutic efficacy in orthotopic TNBC mouse model; format: in vivo, nude mice
Description: To establish orthotopic breast tumors, 0.75 × 10^6 MDA-MB-231-LM3-3 cells were injected into one of the second mammary fat pads of nude mice (Charles River Laboratories, female, 6–7 weeks, n = 6/group). Phospho-bufalin was dissolved in PBS for tumor treatment. PBS was injected as the vehicle control. When tumors became palpable, generally 14 days after injection, mice were randomized into two groups. The treatment group was then injected with phospho-bufalin subcutaneously (0.75 mg/kg per dose, 3 doses per week) for 3 weeks while the control group received PBS. Tumor lengths and widths were measured three times per week. Tumor sizes were calculated by: (length × width × width)/2.

SRC–3 [7] = target: T1, SRC–3; assay: Western blotting of SRC-3, dose response in LM3-3 cells; format: cell-based; design: endogenous in cells
SRC–3 [8] = target: T1, SRC–3; assay: SRC-3 levels in tumor tissues (Western blotting, IHC); format: in vivo, nude mice; design: from tissue; host or cells: orthotopic MDA-MB-231-LM3-3 xenograft tumours from nude mice; details: 0.75 mg/kg 3 times per week
Description: Cell lysate was prepared by adding RIPA buffer (containing 10 mM Tris-Cl pH 8.0, 1 mM EDTA, 0.5 mM EGTA, 1% Triton X–100, 0.1% sodium deoxycholate, 0.1% SDS, 140 mM NaCl, and protease inhibitors) to cells kept on ice. After spinning samples at 16,000 rpm for 15 minutes at 4°C, insoluble materials in the collected cell lysate were precipitated and discarded. The total protein concentration was measured using a Bradford protein assay. An equivalent mass of each sample was loaded and electrophoretically separated by 10% SDS-PAGE. Then proteins on PAGE the gel were transferred to a PVDF membrane. Anti-SRC–3 (Cell Signaling Technology Co. Cat# 2126) and anti-actin (Cell Signaling Technology Co. Cat# 8457) were used to probe the membranes.
The formalin-fixed, paraffin-embedded tissue was dried at 58°C for 1 hour in an oven, and de-paraffinized by soaking slides in xylene, ethanol, and finally distilled water. Antigen was retrieved by steaming slides in a target retrieval solution, 10 mM citrate buffer (pH 6.0), for 30 minutes. Endogenous peroxidases were blocked with a 3% of hydrogen peroxide solution in PBS buffer. The leftover hydrogen peroxide was removed with PBS rinse. […] To visualize the immunostaining, the sections were incubated with a fresh DAB solution (Dako Inc. Cat# K3468) and monitored under a microscope. […]

[9] = 7.5 mg/kg i.p., + 10 min post-injection
[10] = 7.5 mg/kg i.p., - 5 min (before injection)
[11] = 11.25 mg/kg i.p., + 5 min post-injection
[12] = 11.25 mg/kg i.p., + 10 min post-injection
[13] = 11.25 mg/kg i.p., + 15 min post-injection
[14] = 11.25 mg/kg i.p., - 5 min (before injection)
[15] = female, ICR, mouse, plasma, ip, 0.5 mg/kg

T1 sequence (Q9Y6Q9 whole entry): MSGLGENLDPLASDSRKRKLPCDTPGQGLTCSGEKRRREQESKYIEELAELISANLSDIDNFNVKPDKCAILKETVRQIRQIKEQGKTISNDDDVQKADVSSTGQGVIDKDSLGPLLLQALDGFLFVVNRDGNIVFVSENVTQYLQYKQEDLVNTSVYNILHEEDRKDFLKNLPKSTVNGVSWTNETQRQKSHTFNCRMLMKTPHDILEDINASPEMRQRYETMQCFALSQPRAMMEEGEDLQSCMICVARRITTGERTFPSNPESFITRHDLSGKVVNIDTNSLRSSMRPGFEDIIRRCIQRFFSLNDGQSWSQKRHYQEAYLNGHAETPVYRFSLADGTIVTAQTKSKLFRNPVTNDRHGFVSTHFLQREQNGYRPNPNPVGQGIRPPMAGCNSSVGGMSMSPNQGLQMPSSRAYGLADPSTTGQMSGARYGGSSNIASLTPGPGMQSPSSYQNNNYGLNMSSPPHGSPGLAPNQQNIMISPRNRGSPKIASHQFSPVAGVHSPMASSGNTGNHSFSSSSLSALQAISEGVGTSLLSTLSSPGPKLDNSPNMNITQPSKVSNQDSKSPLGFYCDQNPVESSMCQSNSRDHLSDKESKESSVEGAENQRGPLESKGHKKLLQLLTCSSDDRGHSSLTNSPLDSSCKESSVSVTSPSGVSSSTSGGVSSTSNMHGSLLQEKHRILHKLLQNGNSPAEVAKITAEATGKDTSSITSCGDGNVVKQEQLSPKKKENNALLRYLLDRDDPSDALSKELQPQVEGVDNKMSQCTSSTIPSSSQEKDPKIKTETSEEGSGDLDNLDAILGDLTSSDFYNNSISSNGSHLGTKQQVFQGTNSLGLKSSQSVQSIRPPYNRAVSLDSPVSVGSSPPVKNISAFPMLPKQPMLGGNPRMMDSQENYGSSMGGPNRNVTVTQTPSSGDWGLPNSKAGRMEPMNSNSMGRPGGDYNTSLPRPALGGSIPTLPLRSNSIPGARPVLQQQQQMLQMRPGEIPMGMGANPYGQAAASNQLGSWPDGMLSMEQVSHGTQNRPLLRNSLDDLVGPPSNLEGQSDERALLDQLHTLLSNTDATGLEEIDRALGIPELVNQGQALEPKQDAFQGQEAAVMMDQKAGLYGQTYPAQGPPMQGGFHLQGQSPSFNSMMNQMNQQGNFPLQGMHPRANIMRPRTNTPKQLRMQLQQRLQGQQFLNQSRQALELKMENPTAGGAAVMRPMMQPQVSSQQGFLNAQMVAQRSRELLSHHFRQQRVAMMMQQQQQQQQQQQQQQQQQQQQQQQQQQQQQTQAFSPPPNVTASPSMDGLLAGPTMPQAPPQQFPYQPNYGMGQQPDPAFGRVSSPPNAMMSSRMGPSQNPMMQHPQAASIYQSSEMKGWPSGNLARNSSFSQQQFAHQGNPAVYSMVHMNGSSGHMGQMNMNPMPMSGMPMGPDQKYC

Cc1cc2c(C(C)C)c(O)c(O)c(C=O)c2c(O)c1-c1c(C)cc2c(C(C)C)c(O)c(O)c(C=O)c2c1O [gossypol]
IC50 values (SRC–3 [1]): micromolar

C[C@]12CC[C@H](O)C[C@H]1CC[C@@H]1[C@@H]2CC[C@]2(C)[C@@H](c3ccc(=O)oc3)CC[C@]12O [bufalin]
damage to cardiomyocytes (histology) (heart muscle): little damage to cardiomyocytes | IC50 (SUM159PT): < 20 nM | IC50 (SUM159PT; Homo sapiens, SUM-159-PT): 15.9 nM | IC50 values (cancer cells): low nM range | IC50 (MDA-MB–231; Homo sapiens): 20 nM | IC50 (MDA-MB–231): < 20 nM | toxicity toward LM3-3 cells under motility assay conditions (LM3-3 cells [2]; 12 h): minimal toxicity | motility of LM3-3 cells (LM3-3 cells [2]; increasing concentrations): decreased with increasing concentrations | time post injection at which bufalin became undetectable ([3]; released bufalin after p-Buf 0.5 mg/kg i.p.): 1 h | IC50 (HCC1143): 71.8 nM | toxicity in mouse primary hepatocytes [4]: did not cause any observable toxicity | combination effect with gefitinib on LM3-3 cell viability (LM3-3 cells [5]; 5 or 10 nM bufalin with gefitinib): synergize with gefitinib | IC50 (MDA-MB-231-LM3-3; 72 h): 16.6 nM | IC50 (MDA-MB-231-LM3-3): < 20 nM | IC50 (SUM149PT): < 20 nM | IC50 (SUM149PT; Homo sapiens): 16.6 nM

C[C@]12CC[C@H](OP(=O)(O)O)C[C@H]1CC[C@@H]1[C@@H]2CC[C@]2(C)[C@@H](c3ccc(=O)oc3)CC[C@]12O [3-phospho-bufalin, 3-Phospho-bufalin]
damage to cardiomyocytes (histology) (heart muscle): little damage to cardiomyocytes | Ki-67 positive cells in tumor tissue (IHC) (Ki–67): dramatically fewer Ki–67 positive cells | changes in EKG parameters (ICR mice; 7.5 mg/kg and 11.25 mg/kg i.p.): did not observe significant changes in EKG parameters | HR (ICR mice; [9]): 788.7 ± 1.2 BPM | QRS (ICR mice; [9]): 11.0 ± 0.1 ms | QT (ICR mice; [9]): 38.2 ± 0.9 ms | QTc (ICR mice; [9]): 43.8 ± 1.0 ms | RR (ICR mice; [9]): 76.1 ± 0.1 ms | ST (ICR mice; [9]): 27.6 ± 0.9 ms | HR (ICR mice; [10]): 754.7 ± 6.6 BPM | QRS (ICR mice; [10]): 10.6 ± 0.1 ms | QT (ICR mice; [10]): 40.2 ± 0.6 ms | QTc (ICR mice; [10]): 45.0 ± 0.5 ms | RR (ICR mice; [10]): 79.6 ± 0.7 ms | ST (ICR mice; [10]): 30.1 ± 0.7 ms | HR (ICR mice; [11]): 779.7 ± 1.5 BPM | QRS (ICR mice; [11]): 10.9 ± 0.1 ms | QT (ICR mice; [11]): 37.1 ± 0.3 ms | QTc (ICR mice; [11]): 42.3 ± 0.4 ms | RR (ICR mice; [11]): 77.0 ± 0.1 ms | ST (ICR mice; [11]): 26.7 ± 0.4 ms | HR (ICR mice; [12]): 761.3 ± 7.5 BPM | QRS (ICR mice; [12]): 11.1 ± 0.2 ms | QT (ICR mice; [12]): 38.1 ± 0.6 ms | QTc (ICR mice; [12]): 43.0 ± 0.6 ms | RR (ICR mice; [12]): 78.8 ± 0.8 ms | ST (ICR mice; [12]): 26.6 ± 0.5 ms | HR (ICR mice; [13]): 755.0 ± 1.0 BPM | QRS (ICR mice; [13]): 11.5 ± 0.1 ms | QT (ICR mice; [13]): 39.1 ± 0.9 ms | QTc (ICR mice; [13]): 43.9 ± 0.9 ms | RR (ICR mice; [13]): 79.5 ± 0.1 ms | ST (ICR mice; [13]): 28.1 ± 0.8 ms | HR (ICR mice; [14]): 798.0 ± 12.8 BPM | QRS (ICR mice; [14]): 10.6 ± 0.3 ms | QT (ICR mice; [14]): 39.1 ± 2.4 ms | QTc (ICR mice; [14]): 45.1 ± 2.9 ms | RR (ICR mice; [14]): 75.8 ± 0.2 ms | ST (ICR mice; [14]): 29.0 ± 2.2 ms | body weight versus control at the end of the experiment ([6]; 0.75 mg/kg 3 times per week): statistically the same body weight | tumor growth (tumor volume) ([6]; 0.75 mg/kg, 3 times per week for 3 weeks, subcutaneously): significantly inhibit TNBC tumor growth | tumor weight, PBS treated relative to treatment group ([6]; day 31, 0.75 mg/kg 3 times per week): ~ 2.4 times | AUC(0-inf) [3, 15]: 0.046 ± 0.018 µM·h | AUC(0-t) [3, 15]: 0.031 ± 0.018 µM·h | Tmax [3, 15]: 15 min | half-life [3, 15]: 44.5 ± 6.24 min | conversion to parent bufalin in vivo ([3]; free bufalin detected in plasma): can be converted to parent bufalin in vivo | potency to inhibit SRC-3 levels compared with bufalin (SRC–3 [7]; LM3-3 cells, Western blotting): less potent than bufalin | downregulation of SRC-3 in LM3-3 cells (Western blotting) (SRC–3 [7]; dose response): can also inhibit SRC–3 expression levels | SRC-3 level in tumor tissue (IHC staining) versus PBS (SRC–3 [8]): significantly lower | SRC-3 protein levels in tumor tissues (Western blotting) versus PBS (SRC–3 [8]): significantly lower

COc1cc2ncnc(Nc3ccc(F)c(Cl)c3)c2cc1OCCCN1CCOCC1 [gefitinib]
toxicity in LM3-3 cells, gefitinib alone (LM3-3 cells [5]; concentrations up to 20 μM): minimal toxicity
